Numbering of substitutions follows the chain as printed.
T1: I-FABP (native, rat intestinal) (Rattus norvegicus, UniProt P02693)
T1 construct: made in house; host or cells: E. coli BL21 (pET11D)
T1 sequence (P02693 1-132): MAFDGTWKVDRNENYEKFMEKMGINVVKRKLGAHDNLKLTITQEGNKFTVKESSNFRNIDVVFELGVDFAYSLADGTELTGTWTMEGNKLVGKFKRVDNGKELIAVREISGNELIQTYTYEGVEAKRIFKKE

B1: Lys27 on I-FABP with danzyl aziridine: Lys27 on I-FABP with danzyl aziridine has been derivatized (conjugate, UniProt P02693 2-132, looked up)
Fatty acid-binding protein, …: AFDGTWKVDRNENYEKFMEKMGINVVKRKLGAHDNLKLTITQEGNKFTVKESSNFRNIDVVFELGVDFAYSLADGTELTGTWTMEGNKLVGKFKRVDNGKELIAVREISGNELIQTYTYEGVEAKRIFKKE
modifications: dansyl aziridine label at Lys27
notes: Lys27 on I-FABP with danzyl aziridine has been derivatized
B2: Cys27 mutant of I-FABP with acrylodan: Cys27 mutant of I-FABP (Lys27 to Cys27) with acrylodan (conjugate, UniProt P02693 2-132, looked up, variant K27C)
Fatty acid-binding protein, …: B1 Fatty acid-binding protein, … with K27C
modifications: acrylodan label
B3: Native A-FABP labeled with acrylodan: Native A-FABP which contains two cysteines, was labeled with acrylodan (conjugate, UniProt P15090 2-132, looked up)
Fatty acid-binding protein, …: CDAFVGTWKLVSSENFDDYMKEVGVGFATRKVAGMAKPNMIISVNGDVITIKSESTFKNTEISFILGQEFDEVTADDRKVKSTITLDGGVLVHVQKWDGKSTTIKRKREDDKLVVECVMKGVTSTRVYERA
modifications: acrylodan label
B4: Native A-FABP labeled with NBD: Native A-FABP labeled with the N-[7-(4-nitrobenzo-2-oxa-1,3-diazol) (NBD) moieties (conjugate, UniProt P15090 2-132, looked up)
Fatty acid-binding protein, …: B3 Fatty acid-binding protein, …
modifications: NBD label
notes: Native A-FABP labeled with the N-[7-(4-nitrobenzo-2-oxa-1,3-diazol) (NBD) moieties

How the values were obtained:
[1] = target: ADIFAB (Acrylodan derivatized native rat I-FABP, Lys27) (Rattus norvegicus, UniProt P02693); test: biochemical; format: binding; settings: for rank of Kd, in words: among the long chain FA of Table I
Procedure: In most of the studies FFA was added to ADIFAB, in a buffer (A) consisting of 10 Mm HEPES, 150 Mm NaCI, 5 mM KCI, and 1 mM NaHPO4 at pH 7.4, as the sodium salt of the fatty acid. […] FA bind to most surfaces and values of the total FA concentration ([FAT]) were corrected for FA binding to cuvette and container walls. This binding was determined using trace amounts of […] labeled FA and, separately, ADIFAB florescence to determine the degree of FA loss upon transfer from one container to another. […] To minimize FA binding to surfaces, the monomer concentrations of stock solutions of the Na salts were maintained at pH >9.0 in water, and were warmed to >37° C. just prior to use. The polyunsaturated forms of the FA are subject to oxidation and it was observed that dissociation constants for binding to ADIFAB (Kd) were considerably greater for the oxidized FA. Care was taken to reduce the exposure of the FA salts to oxygen (all handling was carried out under Argon) and to store them at -20° C.
The concentrations of FA in the aqueous phase (FFA) and FA bound to ADIFAB ([FAb ]) were determined from the ratio of fluorescence emission intensities at 432 and 505 nm (R). The values FFA and [FAb ]were related to the ratio of intensities essentially by the method of Grynkiewicz et. al. (Grynkiewicz, G., Poenie, M., & Tsien, R. Y. (1985) J. Biol. Chem. 260, 3440-3450), according to which:
[FAb ]=[ADIFABtotal ]Q(fr)/(1-fr+FRQ) FR
are the ADIFAB intensities with zero and saturating concentrations of FFA, Ro is the intensity ratio in the absence of FFA and Rmax is the value when ADIFAB is saturated.
Because of the limiting solubility of long chain FA in aqueous solution Rmax and Q cannot. in general, be determined directly. To determine Rmax and Q, ADIFAB was titrated with lauric acid (12:0) whose high CMC allowed maximum R values (~10-11) to be measured that were considerably greater than with longer chain FA. From this titration a linear correlation was found between Q and R. Using Q, R pairs predicted by this relationship, a two parameter (Kd and Rmax) least squares analysis of each FA was done using the equation for equilibrium binding;
1/[FAb ]=(Kd/[ADIFAB])/FFA+1/[ADIFAB] (3)
Optimal Q and Rmax values obtained in this analysis were in the range 17-22 and 10 and 13, respectively, with average values of 19.5 and 11.5. Final Kd values for each FA were then determined by least squares analysis of equation (3) with Q and Rmax fixed at 19.5 and 11.5, respectively.
Fluorescence measurements to monitor Acrylodan fluorescence in various solvents, to monitor adduct formation, and to obtain complete spectra were carried out using an SLM 8000C fluorometer. Measurements of the 505/432 intensity ratios (R values) used to monitor the FFA titrations of ADIFAB were done with either the SLM 8000C or a Perkin-Elmer MPF-2A fluorometer.
ADIFAB dose response to FFA and FFA aggregate formation was measured. The ratio of fluorescent intensities at emission wavelengths of 505/432 nm were measured as a function of added Na salts of several FFA. Resulting data are depicted graphically in FIGS. 6A, 6B and 6C. Conditions were similar to those used in FIG. 3 except that 100mM EGTA was used in obtaining the data depicted in FIGS. 6A and 6B, while the data depicted in FIG. 6C was obtained using 1 mM CaCl2. Measured R values were used to determine FFA and [FFAb]using equations (1) and (2). The solid curves through the data of FIGS. 6A and 6C represent best fits of equation (3) obtained using a non-linear least squares algorithm. Aggregate formation was detected by measuring 90° light scattering from FFA in the buffer of FIG. 3 containing no added calcium and titrated with the Na salts of the FFA as described above, see FIG. 6B. The smoothed curves through the data, intended to guide-the-eye, indicate that aggregate formation, as detected by a sharp increase in light scattering, is approximately coincident with the maximum R value observed in the experiment related to FIG. 6A. […]

[2] = target: T1, I-FABP (native, rat intestinal); test: Tryptophan fluorescence of native I-FABP on addition of FFA; format: binding; settings: as much as
Procedure: In early work, cloning was carried out using a cDNA library from neo-natal rat intestine purchased from STRATAGENE (11099 North Torrey Pines Rd., La Jolla, CA 92037). The library is carried by the LAMBDA ZAP II vector and was used with the E. coil host strain XL 1Blue which is supplied with the library. The recombinant clone was identified with an oligonucleotide probe based upon the published sequence of the I-FABP DNA (Lowe, J. B., Sacchettini, J. C., Laposata, M., McQuillan, J. J. and Gordon, J. I. J. Biol. Chem. 262:5931, 1987) and sequencing of 5and 3regions was used to verify the identity and completeness of the gene. […] The I-FABP gene was removed from the lambda Zap vector and inserted into a PET expression vector (PET11 D) purchased from Novagen and the protein was expressed using the E. coil strains (BL2 1) also from Novagen (Madison, WI, USA). I-FABP is isolated from E. coil and purified as described, Lowe, J. B., Sacchettini, J. C., Laposata, M., McQuillan, J. J. and Gordon, J. I. J. Biol. Chem. 262:5931, 1987. In this procedure cells, after a 3-hour culture, are lysed, centrifuged to remove cell debris and the pellet frozen at -70 °C. The frozen pellet was allowed to thaw in the presence of a lysing buffer composed of 50mM Tris, 0.5mM EDTA, 0.5mM PMSF, 0.1% Triton X100, at pH 8.0. This was centrifuged at 20,000 g. for 45 minutes and the pellet was discarded. The lysate was then subjected to two rounds (50% and 70%) of ammonium sulfate precipitation and the supernatant from the 70% material was desalted and concentrated using an Amicon ultrafiltration apparatus with a YM10 filter. The flitrate was then subjected to DEAE-Sephadex (A50), followed by Sephadex G-75 chromatography and the low molecular weight fractions were saved. This material gives a single band on 12% PAGE and an amino acid analysis of this material was consistent with the amino acid sequence of I-FABP. […] The addition of FFA (oleate, stearate, or palmitate) reduced the tryptophan fluorescence of the native protein by as much as 40%.

[3] = Fluorescence response of fluorescent-FABP probes to fatty acid binding; format: biochemical
Text: Principles and exemplary methods for constructing probes as described and defined herein and methods for determining FFA levels are described in detail below. Using these principles fourteen different fluorescent-FABP derivatives have been constructed. This has been done using 3 different native FABPs (rat intestine (I-FABP), human adipocyte (A-FABP), and human heart (H-FABP)) plus 4 site-specific mutants of two of these (I-FABP, (Thr83Cys83, Thr81Cys81, Lys27Cys27 and H-FABP, Thr27Lys27), and these proteins have been derivatized with 4 different fluorophores (acrylodan, danzyl aziridine, 4-[N-[(2-iodoacetoxy)ethyl]-N-methylamino]-7-nitrobenz-2-oxa1,3-diazole ester (IANBDE), 4-[N-[(2-iodoacetoxy)ethyl]-N-methylamino]-7-nitrobenz-2-oxa-1,3-diazole these derivatives can serve as FFA probes, to some degree. To date, however, ADIFAB remains the one that has optimal properties for current applications. Obviously, by occupying, partially, the binding site with a fluorophore, FA must compete for its site and therefore the FA binding constant for the FABP may be altered from the native protein. This is indeed the case for ADIFAB for which the Kd is about 10 fold greater than for the native protein. So long as FA can bind, however, the derivatized molecule can still function as a FFA probe and so long as the probe's dynamic range is sufficient (as it is for ADIFAB, IANBDE and IANBDA) then FFA levels over a wide range, including those that are physiologic, can be measured.
The Cys27 mutant of I-FABP (Lys27 to Cys27) with acrylodan, IANBDE and IANBDA have also been labeled using the technique described. […] This is the behavior predicted from the construction principles set forth herein, and reflects the shorter tethering arm to Cys27 as compared to Lys27 which prevents the deeper insertion into the binding site that is observed in the Lys27 derivative. […] Thus, those skilled in the art can with considerable confidence predict whether protein modifications and/or choice of label will result in a FFA responsive probe.
Site-directed mutagenesis was used to introduce a cysteine residue at positions 82 or 84, in place of the threonine residues that are normally at this position. Mutagenesis was carried out by annealing a synthetic prirner with a single mismatched base to the above derived expression vector. The primer was extended and ligated in vitro, and the resulting heteroduplex was used to transfect the host strain. The transfected host was screened for the mutated DNA by hybridization with the mutating oligonucleotide. Mutated plasmid DNA was isolated, retransformed into the host strain, and its structure confirmed by sequencing the recombinant DNA in regions defined by probes flanking the mutated region. This modified protein was expressed in the same system and purified by the same methods as for the native protein. Typical yields of purified protein were approximately 50 mg/liter cell culture. The mutated I-FABP protein was fluorescently derivatized by inserting a fluorescent group (which reacts specifically with free SH groups) at the newly created cysteine residue. The cysteine residue was inserted at positions 82 (replacing a threonine residue) and/or at residue 84 (also a threonine residue) since both these positions face outward from the FFA binding pocket but are in close proximity to the tryptophan at position 83 (about 3.5Å lateral separation along the b strand and about 10Å vertical separation between the centers of the tryptophan and fluorescent residues). […] Thus, either the direct emission of the fluorescent group and/or the rate of resonance energy transfer between Trp83 and the fluorescent group was postulated to change. In a non-limiting prior specific example, the dansyl derivative ACRYLODAN®(6-acryloly-2dimethylamenonaphthalene) was used to modify the mutated FABP and this probe was designated FAD508.
ADIFAB dose response to FFA and FFA aggregate formation was measured. […]

[4] = FA-ADIFAB Dissociation Constants, Kd, no added calcium, FIG. 6A, buffer A pH 7.4

Molecule	reduction of the tryptophan fluorescence of the native protein [2] [%]	responsiveness of the probe to FA binding, in words [3]	other results
CCCCCCCC/C=C\CCCCCCCC(=O)O [OLEATE, oleate]	≤ 40	–	Kd [1, 4]: 280 ± 10 nM; Kd ([1]; Kd in the presence of calcium, 1 mM calcium): 310 nM; rank of Kd, in words [1]: smallest Kds
CCCCCCCCCCCCCCCC(=O)O [PALMITATE, palmitate]	≤ 40	–	Kd [1, 4]: 320 ± 10 nM; rank of Kd, in words [1]: smallest Kds; Kd relative to oleate (fold greater than oleate) ([1]; normalized to oleate): about 1.1 fold
CCCCCCCCCCCCCCCCCC(=O)O [stearate]	≤ 40	–	–
B1	–	exhibits an increase in 450 nm fluorescence upon FA binding	–
B2	–	the relative change upon FA binding is smaller than for ADIFAB	–
B3	–	only poorly responsive	–
B4	–	only poorly responsive	–
